Data on ten compounds can be found in PubChem BioAssay (NCI).

SMILES strings stand for the structures. Values joined by “and” are separate entries in the source; they are usually repeats but may differ in a detail not shown here. Equal entries are not always repeated.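 All cell lines were grown in 96-well plates and treated with compound for 48 hours. Abbreviation: GI50, concentration required for 50% inhibition of growth. Definition used: TGI = concentration required for complete inhibition of growth.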

What all share (experiment): growth of human tumour cells (NCI), 48 h
The test system of experiment [1] is SF-295 CNS.
Experiment [2] relates to MOLT-4 leukemia.
Experiment [3] concerns UO-31 renal.
For experiment [4], the system named is NCI-H522 lung.
Experiment [5] deals with LOX IMVI melanoma.
Experiment [6] has as its system KM12 colon.
Experiment [7] relates to UACC-62 melanoma.
In experiment [8] the test system is K-562 leukemia.
In experiment [9] the test system is SK-OV-3 ovarian.
Experiment [10] deals with ACHN renal.

On to `CC(=O)Oc1ccc2ccc(=O)oc2c1OC(C)=O`, for which the TGI in [1], in experiment [2], in experiment [3], in experiment [4], in [5] and in [6] was over 100 µM each time. Moreover, the TGI in experiment [7], in experiment [8], in experiment [9] and in experiment [10] was over 100 µM throughout.
Consider `CCOc1cc(C=O)c2c(ccc3ccc(OC)c(OC)c32)c1OC`, for which the TGI in [1], in [2], in experiment [3], in experiment [4], in experiment [5] and in [6] was over 100 µM in each case. Besides, the TGI in experiment [7], in experiment [8], in [9] and in experiment [10] was over 100 µM throughout.
As to `CCc1ccc(CCC(=O)Nc2ncc(Cc3cc(Cl)ccc3Cl)s2)o1`, the GI50 in [1] is 1.25 µM; in experiment [2] it was 1.3 µM; in experiment [3], 1.86 µM; in experiment [4], 1.62 µM; in experiment [5] it was 2.04 µM; in [6], 1.12 µM. Further, the GI50 is 1.49 µM in [7], 0.242 µM in experiment [8], 2.04 µM in experiment [9] and 1.69 µM in experiment [10]. For the same compound, the TGI in experiment [1] was 7.17 µM; in experiment [2], over 50 µM; in experiment [3] it was 22.5 µM; in experiment [4] it was over 50 µM; in experiment [5], over 50 µM; in [6] it was over 50 µM. Besides, the TGI is over 50 µM in [7], over 50 µM in experiment [8], over 50 µM in experiment [9] and 11.6 µM in experiment [10].
`CCOC(=O)C1=C(N)Oc2c(sc3c(C)cccc23)C1c1ccc(Cl)cc1` (configuration not stated): the GI50 in experiment [1] is 1.89 µM; in [2], 3.58 µM; in experiment [3], 3.03 µM; in experiment [4], 1.22 µM; in experiment [5], 3.03 µM; in experiment [6], 1.62 µM. Besides, the GI50 in [7] was 1.08 µM; in [8] it was 1.32 µM; in [9], 7.97 µM; in experiment [10] it was 3.17 µM. Further, the TGI is 4.26 µM in experiment [1]; 19.7 µM in experiment [2]; 16.7 µM in [3]; 6.28 µM in experiment [4]; 13.7 µM in experiment [5]; 13.3 µM in [6]. The TGI was 13.3 µM in experiment [7], over 100 µM in experiment [8], 30.1 µM in experiment [9] and 17.6 µM in experiment [10].
Regarding `COc1cc(C(=O)NC2CCN(C)CC2)ccc1Nc1ncc2c(n1)N(C1CCCC1)CC(F)(F)C(=O)N2C`, the GI50 in experiment [1] is 0.0491 µM; in experiment [2] it was under 0.01 µM; in [3], 1.66 µM; in experiment [4] it was 0.0129 µM; in [5] it was under 0.0167 µM; in experiment [6], under 0.01 µM. Besides, the GI50 was under 0.0246 µM in experiment [7], under 0.01 µM in [8], under 0.0133 µM in experiment [9] and 0.542 µM in [10]. Further, the TGI was found to be 3.51 µM in [1]; 1.79 µM in experiment [2]; 12.9 µM in experiment [3]; 2.92 µM in experiment [4]; 2.37 µM in experiment [5]; 14.1 µM in experiment [6]. The TGI in [7] was 5.84 µM; in experiment [8], 4.86 µM; in experiment [9], 0.761 µM; in [10], 14.9 µM.
In the case of `CN(C)c1ccccc1CC(c1c[nH]c2ccccc12)c1c[nH]c2ccccc12`, the TGI in experiment [1] was 24.4 µM; in experiment [2], 21.7 µM; in [3] it was 23.1 µM; in experiment [4], 26.1 µM; in experiment [5], 24.4 µM; in experiment [6] it was 14.5 µM. The TGI in experiment [7] was determined as 27.6 µM; in experiment [8] it was 32.9 µM; in experiment [9], 33.7 µM; in experiment [10], 20.6 µM.
Take `O=C(Nc1ncc(Cc2ccccc2)s1)c1ccc2c(c1)OCCO2`: the GI50 was 0.0304 µM in experiment [1]; 0.146 µM in experiment [2]; 0.0756 µM in experiment [3]; 0.0251 µM in experiment [4]; 0.0546 µM in [5]; 0.0396 µM in [6]. Moreover, the GI50 in experiment [7] is 0.0465 µM; in experiment [8], 0.0383 µM; in experiment [9], 0.0681 µM; in experiment [10] it was 0.0676 µM. Further, the TGI was 1.49 µM in [1]; over 100 µM in experiment [2]; over 100 µM in [3]; over 74.3 µM in [5]; 32.9 µM in experiment [6]; 12.3 µM in [7]. The TGI was over 100 µM in experiment [8], 26.9 µM in experiment [9] and over 100 µM in experiment [10].
`Cc1cc(C)nc(NS(=O)(=O)c2ccc(NC(=O)c3cccc4c(Nc5ccc(S(=O)(=O)Nc6nc(C)cc(C)n6)cc5)c5ccccc5nc34)cc2)n1`: the TGI amounted to 51.5 µM in experiment [1]; 62.8 µM in experiment [2]; 37.3 µM in [3]; 32.8 µM in experiment [4]; 38.7 µM in experiment [5]; 44.3 µM in experiment [6]. In addition, the TGI in experiment [7] was 57.3 µM; in experiment [8], 61.2 µM; in experiment [9] it was 57.2 µM; in experiment [10], 49.8 µM.
`NC(=O)c1nnn(Cc2cc(Cl)c(C(=O)c3ccc(Cl)cc3)c(Cl)c2)c1N`: the TGI was > 9.09 µM and 34 µM in experiment [1]; over 90.7 µM in experiment [2]; > 9.09 µM and 42.1 µM in experiment [3]; > 9.09 µM and 38.8 µM in experiment [4]; over 47.2 µM in experiment [5]; > 9.09 µM and 35 µM in [6]. Also, the TGI in [7] is > 9.09 µM and 36.4 µM; in [8] it was over 70.2 µM; in [9] it was over 52.9 µM; in experiment [10] it was > 9.09 µM and 35.1 µM. Moreover, the GI50 in [2], in experiment [3], in [4], in [5], in [6] and in experiment [7] was over 9.09 µM throughout. In addition, the GI50 in experiment [8] is 2.19 µM; in experiment [9], over 9.09 µM.
On to `O=C(O)CNC(=O)c1ccccc1O`, for which the TGI in experiment [1], in [2], in [3], in [4], in experiment [5] and in experiment [6] was over 100 µM throughout. Moreover, the TGI in experiment [7], in experiment [8], in experiment [9] and in experiment [10] was over 100 µM each time.
